Measured values: ChEMBL document CHEMBL1135703, “Synthesis and biological activity of a novel class of small molecular weight peptidomimetic competitive inhibitors of protein tyrosine phosphatase 1B” (2002)

Key:
[1] = target: T1, Tyrosine-protein phosphatase non-receptor type 1 (Rattus norvegicus) (UniProt P20417); assay: Percent inhibition of Protein-tyrosine phosphatase 1 (PTP) assayed at 100 uM
T1 sequence (whole entry): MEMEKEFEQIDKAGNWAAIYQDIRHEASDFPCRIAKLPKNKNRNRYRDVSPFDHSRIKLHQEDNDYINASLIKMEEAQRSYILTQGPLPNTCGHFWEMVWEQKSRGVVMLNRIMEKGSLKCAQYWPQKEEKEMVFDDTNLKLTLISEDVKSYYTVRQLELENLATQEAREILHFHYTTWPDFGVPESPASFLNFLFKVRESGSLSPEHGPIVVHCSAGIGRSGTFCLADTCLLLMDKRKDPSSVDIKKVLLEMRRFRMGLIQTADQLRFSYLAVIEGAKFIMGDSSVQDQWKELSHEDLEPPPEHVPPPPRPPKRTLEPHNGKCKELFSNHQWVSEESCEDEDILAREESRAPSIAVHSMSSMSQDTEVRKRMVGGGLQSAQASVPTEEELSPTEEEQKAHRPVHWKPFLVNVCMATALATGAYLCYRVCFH

[2] = target: Receptor-type tyrosine-protein phosphatase F (Homo sapiens) (UniProt P10586); assay: Percent inhibition of Protein-tyrosine phosphatase Lar assayed at 100 uM
Receptor-type tyrosine-protein phosphatase F (Homo sapiens), sequence (P10586 whole entry, the tested form may be a part): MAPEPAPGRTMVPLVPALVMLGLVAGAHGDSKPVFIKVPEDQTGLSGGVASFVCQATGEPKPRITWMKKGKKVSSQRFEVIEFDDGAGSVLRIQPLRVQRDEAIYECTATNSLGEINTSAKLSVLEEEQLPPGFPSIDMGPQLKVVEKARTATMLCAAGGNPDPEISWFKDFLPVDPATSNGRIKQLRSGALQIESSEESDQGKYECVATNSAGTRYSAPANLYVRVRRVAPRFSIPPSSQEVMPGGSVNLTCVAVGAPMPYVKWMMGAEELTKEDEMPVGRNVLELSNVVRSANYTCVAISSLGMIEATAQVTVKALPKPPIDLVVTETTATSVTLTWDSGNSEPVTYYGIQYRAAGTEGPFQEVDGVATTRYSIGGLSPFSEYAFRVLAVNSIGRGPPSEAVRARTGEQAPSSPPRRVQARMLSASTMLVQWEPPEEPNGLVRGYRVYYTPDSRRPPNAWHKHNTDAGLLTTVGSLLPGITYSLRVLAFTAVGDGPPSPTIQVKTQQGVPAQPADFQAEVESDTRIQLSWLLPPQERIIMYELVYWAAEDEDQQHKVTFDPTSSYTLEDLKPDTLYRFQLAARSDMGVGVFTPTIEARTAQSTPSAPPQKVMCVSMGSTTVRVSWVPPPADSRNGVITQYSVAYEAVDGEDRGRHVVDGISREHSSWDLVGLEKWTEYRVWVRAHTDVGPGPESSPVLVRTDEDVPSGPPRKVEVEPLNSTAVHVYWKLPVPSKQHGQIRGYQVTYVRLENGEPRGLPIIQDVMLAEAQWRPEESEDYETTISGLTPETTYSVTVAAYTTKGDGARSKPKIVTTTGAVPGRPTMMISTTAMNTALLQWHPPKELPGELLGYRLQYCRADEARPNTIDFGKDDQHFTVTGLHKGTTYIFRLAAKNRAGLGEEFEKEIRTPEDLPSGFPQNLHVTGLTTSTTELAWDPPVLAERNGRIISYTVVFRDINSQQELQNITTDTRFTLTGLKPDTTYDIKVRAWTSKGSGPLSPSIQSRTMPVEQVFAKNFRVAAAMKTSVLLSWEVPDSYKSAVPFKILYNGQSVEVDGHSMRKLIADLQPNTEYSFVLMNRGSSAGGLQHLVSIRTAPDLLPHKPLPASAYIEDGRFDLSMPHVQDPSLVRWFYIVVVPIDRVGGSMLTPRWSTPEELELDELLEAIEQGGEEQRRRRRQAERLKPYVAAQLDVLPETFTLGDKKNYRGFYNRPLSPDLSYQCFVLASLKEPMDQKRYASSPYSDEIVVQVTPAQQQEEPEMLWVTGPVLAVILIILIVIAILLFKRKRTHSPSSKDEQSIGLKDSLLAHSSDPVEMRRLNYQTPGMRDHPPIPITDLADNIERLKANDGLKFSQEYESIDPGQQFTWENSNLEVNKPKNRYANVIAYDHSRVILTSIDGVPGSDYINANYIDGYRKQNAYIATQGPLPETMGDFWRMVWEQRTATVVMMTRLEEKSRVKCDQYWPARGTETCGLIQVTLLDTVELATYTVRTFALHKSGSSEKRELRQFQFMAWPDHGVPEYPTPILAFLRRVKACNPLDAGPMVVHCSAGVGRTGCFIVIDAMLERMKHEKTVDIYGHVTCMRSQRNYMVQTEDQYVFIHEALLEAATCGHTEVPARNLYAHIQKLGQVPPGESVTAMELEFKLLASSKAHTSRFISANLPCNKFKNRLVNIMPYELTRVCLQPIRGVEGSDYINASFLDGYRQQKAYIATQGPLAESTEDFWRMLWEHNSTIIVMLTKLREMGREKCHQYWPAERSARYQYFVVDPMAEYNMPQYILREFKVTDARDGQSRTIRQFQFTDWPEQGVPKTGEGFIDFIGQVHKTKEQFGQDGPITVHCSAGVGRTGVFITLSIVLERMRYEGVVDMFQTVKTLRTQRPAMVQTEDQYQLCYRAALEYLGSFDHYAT

[3] = target: T2, Tyrosine-protein phosphatase non-receptor type 11 (Mus musculus) (UniProt P35235); assay: Percent inhibition of Tyrosine phosphatase SHP2 SH2 domain containing PTP involved in insulin uM; design: concentration or dose not given beside the values; conditions: concentration not given here
T2 sequence (whole entry): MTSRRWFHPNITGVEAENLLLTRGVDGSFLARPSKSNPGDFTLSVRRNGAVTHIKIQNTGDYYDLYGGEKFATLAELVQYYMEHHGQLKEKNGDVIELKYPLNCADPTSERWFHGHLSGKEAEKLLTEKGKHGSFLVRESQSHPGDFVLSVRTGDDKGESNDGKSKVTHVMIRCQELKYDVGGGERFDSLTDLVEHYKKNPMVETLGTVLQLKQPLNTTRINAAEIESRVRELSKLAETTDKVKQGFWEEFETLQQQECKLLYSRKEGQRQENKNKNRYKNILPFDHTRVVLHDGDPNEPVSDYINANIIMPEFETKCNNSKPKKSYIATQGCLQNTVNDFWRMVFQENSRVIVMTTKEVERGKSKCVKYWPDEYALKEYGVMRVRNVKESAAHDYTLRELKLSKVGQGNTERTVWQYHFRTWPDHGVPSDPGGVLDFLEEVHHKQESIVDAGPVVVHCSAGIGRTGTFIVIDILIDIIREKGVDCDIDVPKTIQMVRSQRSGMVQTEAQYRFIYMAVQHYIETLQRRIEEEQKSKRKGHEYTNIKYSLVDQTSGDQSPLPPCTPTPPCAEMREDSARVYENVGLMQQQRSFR

Structure (SMILES): CCCCCNC(=O)C(Cc1ccc(OC(C(=O)O)C(=O)O)cc1)NC(=O)[C@H](Cc1ccc(OCc2ccccc2)cc1)NC(=O)CCC(=O)O (some centres not stated)
- inhibition [1]: 98%
- inhibition [2]: 28%
- inhibition [3]: 33%

Structure (SMILES): CCCCCNC(=O)C(Cc1ccc(OS(C)(=O)=O)cc1)NC(=O)CCC(=O)O (configuration not stated)
- inhibition [1]: 0%

Structure (SMILES): CCCCCNC(=O)C(Cc1ccc(OC(C(=O)O)C(=O)O)cc1)NC(=O)CC(C)(C)CC(=O)O (configuration not stated)
- inhibition [1]: 67%
- inhibition [2]: 6%
- inhibition [3]: 16%

Structure (SMILES): CC(C)CCNC(=O)C(Cc1ccc(OC(C(=O)O)C(=O)O)cc1)NC(=O)CCC(=O)O (configuration not stated)
- inhibition [1]: 48%
- inhibition [2]: 5%
- inhibition [3]: 7%

Structure (SMILES): CCCCCNC(=O)C(Cc1ccc(OC(C(=O)O)C(=O)O)cc1)NC(=O)c1ccccc1C(=O)O (configuration not stated)
- inhibition [1]: 63%
- inhibition [2]: 10%
- inhibition [3]: 19%

Structure (SMILES): CCCCCCNC(=O)C(Cc1ccc(OC(C(=O)O)C(=O)O)cc1)NC(=O)CCC(=O)O (configuration not stated)
- inhibition [1]: 74%
- inhibition [2]: 5%
- inhibition [3]: 8%

Structure (SMILES): O=C(O)CCC(=O)NC(Cc1ccc(OC(C(=O)O)C(=O)O)cc1)C(=O)NCCN1CCCCC1 (configuration not stated)
- inhibition [1]: 23%
- inhibition [3]: 1%

Structure (SMILES): CCCCCNC(=O)C(Cc1ccc(OC(C(=O)O)C(=O)O)cc1)NC(=O)[C@H](Cc1ccc(OC)cc1)NC(=O)OC(C)(C)C (some centres not stated)
- inhibition [1]: 90%
- inhibition [2]: 30%
- inhibition [3]: 9%

Structure (SMILES): O=C(O)CCC(=O)NC(Cc1ccc(OC(C(=O)O)C(=O)O)cc1)C(=O)NCc1ccc2c(c1)OCO2 (configuration not stated)
- inhibition [1]: 63%
- inhibition [2]: 6%
- inhibition [3]: 12%

Structure (SMILES): CCCCCNC(=O)C(Cc1ccc(OC(C(=O)O)C(=O)O)cc1)NC(=O)[C@H]1CCCC[C@@H]1C(=O)O (some centres not stated)
- inhibition [1]: 72%
- inhibition [2]: 7%
- inhibition [3]: 10%

Structure (SMILES): CCCCCNC(=O)C(Cc1ccc(OC(C(=O)O)C(=O)O)cc1)NC(=O)[C@H](COc1ccc(Cc2cc(Cl)ccc2Cl)cc1)NC(=O)OC(C)(C)C (some centres not stated)
- inhibition [1]: 85%
- inhibition [2]: 27%
- inhibition [3]: 45%

Structure (SMILES): CCCCC(N)C(=O)NC(=O)C(Cc1ccc(OC(C(=O)O)C(=O)O)cc1)NC(=O)CCC(=O)O (configuration not stated)
- inhibition [1]: 93%
- inhibition [2]: 4%
- inhibition [3]: 48%

Structure (SMILES): CCCCCNC(=O)C(Cc1ccc(OC(C(=O)O)C(=O)O)cc1)NC(=O)[C@H](CCC(=O)O)NC(=O)OC(C)(C)C (some centres not stated)
- inhibition [1]: 83%
- inhibition [2]: 11%
- inhibition [3]: 14%

Structure (SMILES): CCCCCNC(=O)C(Cc1ccc(OC(C(=O)O)C(=O)O)cc1)NC(=O)COCC(=O)O (configuration not stated)
- inhibition [1]: 53%
- inhibition [2]: 5%
- inhibition [3]: 8%

Structure (SMILES): CCCCCNC(=O)C(Cc1ccc(OC(C(=O)O)C(=O)O)c(F)c1)NC(=O)CCC(=O)O (configuration not stated)
- inhibition [1]: 78%
- inhibition [2]: 4%
- inhibition [3]: 9%

Structure (SMILES): CCCCCNC(=O)C(Cc1ccc(OC(CC(=O)O)C(=O)O)cc1)NC(=O)CCC(=O)O (configuration not stated)
- inhibition [1]: 34%
- inhibition [3]: 4%

Structure (SMILES): CCCCCNC(=O)C(Cc1ccc(OC(C(=O)O)C(=O)O)cc1)NC(=O)C1C2CCC(C2)[C@@H]1C(=O)O (some centres not stated)
- inhibition [1]: 37%
- inhibition [2]: 8%
- inhibition [3]: 5%

Structure (SMILES): CCCCCNC(=O)C(Cc1ccc(OC(C(=O)O)C(=O)O)cc1)NC(=O)[C@H](CCC(=O)O)NC(=O)CCC(=O)O (some centres not stated)
- inhibition [1]: 96%
- inhibition [2]: 10%
- inhibition [3]: 28%

Structure (SMILES): O=C(O)CCC(=O)NC(Cc1ccc(OC(C(=O)O)C(=O)O)cc1)C(=O)NCCCN1CCOCC1 (configuration not stated)
- inhibition [1]: 35%
- inhibition [2]: 0%
- inhibition [3]: 2%

Structure (SMILES): CCCCCNC(=O)C(Cc1ccc(OCC(=O)O)cc1)NC(=O)CCC(=O)O (configuration not stated)
- inhibition [1]: 14%
- inhibition [2]: 0%
- inhibition [3]: 0%

Structure (SMILES): CCCCCNC(=O)C(Cc1ccc(OC(C(=O)O)C(=O)O)cc1)NC(=O)[C@H](COc1ccc(Cc2cc(Cl)ccc2Cl)cc1)NC(=O)CCC(=O)O (some centres not stated)
- inhibition [1]: 98%
- inhibition [2]: 33%
- inhibition [3]: 28%

Structure (SMILES): O=C(O)CCC(=O)NC(Cc1ccc(OC(C(=O)O)C(=O)O)cc1)C(=O)NCCC(c1ccccc1)c1ccccc1 (configuration not stated)
- inhibition [1]: 45%
- inhibition [2]: 11%
- inhibition [3]: 9%

Structure (SMILES): CCCCCNC(=O)C(Cc1ccc(OC(C(=O)O)C(=O)O)cc1)NC(=O)[C@H](CC(=O)O)NC(=O)OC(C)(C)C (some centres not stated)
- inhibition [1]: 90%
- inhibition [2]: 10%
- inhibition [3]: 12%

Structure (SMILES): CCCCCNC(=O)C(Cc1ccc(OC(C(=O)O)C(=O)O)cc1)NC(=O)CC(=O)O (configuration not stated)
- inhibition [1]: 74%
- inhibition [2]: 7%
- inhibition [3]: 13%

Structure (SMILES): O=C(O)CCC(=O)NC(Cc1ccc(OC(C(=O)O)C(=O)O)cc1)C(=O)NCc1cccc2ccccc12 (configuration not stated)
- inhibition [1]: 61%
- inhibition [2]: 10%
- inhibition [3]: 12%

Structure (SMILES): CCCCCNC(=O)C(Cc1ccc(OC(C(=O)O)C(=O)O)cc1)NC(=O)[C@H](Cc1ccc(OC)cc1)NC(=O)CCC(=O)O (some centres not stated)
- inhibition [1]: 98%
- inhibition [2]: 22%
- inhibition [3]: 33%

Structure (SMILES): O=C(O)CCC(=O)NC(Cc1ccc(OC(C(=O)O)C(=O)O)cc1)C(=O)NCc1ccc(C(F)(F)F)cc1 (configuration not stated)
- inhibition [1]: 66%
- inhibition [2]: 4%
- inhibition [3]: 15%

Structure (SMILES): CCCCCNC(=O)C(Cc1ccc(OC(=O)CC(=O)O)cc1)NC(=O)CCC(=O)O (configuration not stated)
- inhibition [1]: 2%
- inhibition [3]: 0%

Structure (SMILES): CCCCCNC(=O)C(Cc1ccc(OC(C(=O)O)C(=O)O)cc1)NC(=O)[C@H]1CCCC[C@H]1C(=O)O (some centres not stated)
- inhibition [1]: 62%
- inhibition [2]: 8%
- inhibition [3]: 13%

Structure (SMILES): CCOC(CNC(=O)C(Cc1ccc(OC(C(=O)O)C(=O)O)cc1)NC(=O)CCC(=O)O)OCC (configuration not stated)
- inhibition [1]: 46%
- inhibition [2]: 3%
- inhibition [3]: 11%

Structure (SMILES): O=C(O)CCC(=O)NC(Cc1ccc(OC(C(=O)O)C(=O)O)cc1)C(=O)NCCCc1ccccc1 (configuration not stated)
- inhibition [1]: 72%
- inhibition [2]: 6%
- inhibition [3]: 12%

Structure (SMILES): CCCCCNC(=O)[C@@H](Cc1ccc(OC(C(=O)O)C(=O)O)cc1)NC(=O)CCC(=O)O
- inhibition [1]: 39%
- inhibition [2]: 1%
- inhibition [3]: 4%

Structure (SMILES): CCCCCNC(=O)C(Cc1ccc(OC(C(=O)O)C(=O)O)cc1)NC(=O)CCCC(=O)O (configuration not stated)
- inhibition [1]: 67%
- inhibition [2]: 7%
- inhibition [3]: 10%

Structure (SMILES): CCCCCNC(=O)C(Cc1ccc(OC(C(=O)O)C(=O)O)cc1)NC(=O)[C@H](CC(=O)O)NC(=O)OCc1ccccc1 (some centres not stated)
- inhibition [1]: 90%
- inhibition [2]: 6%
- inhibition [3]: 50%

Structure (SMILES): CCCCCNC(=O)C(Cc1ccc(CC(C(=O)O)C(=O)O)cc1)NC(=O)CCC(=O)O (configuration not stated)
- inhibition [1]: 34%
- inhibition [2]: 3%
- inhibition [3]: 3%

Structure (SMILES): CCCCCNC(=O)C(Cc1ccc(OC(C(=O)O)C(=O)O)cc1)NC(=O)CC1(CC(=O)O)CCCC1 (configuration not stated)
- inhibition [1]: 72%
- inhibition [2]: 9%
- inhibition [3]: 18%

Structure (SMILES): CC(C)CC(CO)NC(=O)C(Cc1ccc(OC(C(=O)O)C(=O)O)cc1)NC(=O)CCC(=O)O (configuration not stated)
- inhibition [1]: 57%
- inhibition [2]: 0%
- inhibition [3]: 10%

Structure (SMILES): CCCCCNC(=O)C(Cc1ccc(OS(=O)(=O)C(F)(F)F)cc1)NC(=O)CCC(=O)O (configuration not stated)
- inhibition [1]: 0%

Structure (SMILES): CCCCCNC(=O)C(Cc1ccc(OC(C(=O)O)C(=O)O)cc1)NC(=O)[C@H](Cc1ccc(C(=O)c2ccccc2)cc1)NC(=O)OC(C)(C)C (some centres not stated)
- inhibition [1]: 91%
- inhibition [2]: 24%
- inhibition [3]: 11%

Structure (SMILES): NS(=O)(=O)c1ccc(CCNC(=O)C(Cc2ccc(OC(C(=O)O)C(=O)O)cc2)NC(=O)CCC(=O)O)cc1 (configuration not stated)
- inhibition [1]: 63%
- inhibition [2]: 5%
- inhibition [3]: 17%

Structure (SMILES): O=C(O)CCC(=O)NC(Cc1ccc(OC(C(=O)O)C(=O)O)cc1)C(=O)NCC1CCCCC1 (configuration not stated)
- inhibition [1]: 73%
- inhibition [2]: 5%
- inhibition [3]: 12%

Structure (SMILES): O=C(O)CCC(=O)NC(Cc1ccc(OC(C(=O)O)C(=O)O)cc1)C(=O)NCc1ccc(C(=O)O)cc1 (configuration not stated)
- inhibition [1]: 56%
- inhibition [2]: 2%
- inhibition [3]: 58%

Structure (SMILES): CCCCCNC(=O)C(Cc1ccc(OCC(=O)O)c(C(N)=O)c1)NC(=O)CCC(=O)O (configuration not stated)
- inhibition [1]: 11%
- inhibition [2]: 0%
- inhibition [3]: 1%

Structure (SMILES): CCCCNC(=O)C(Cc1ccc(OC(C(=O)O)C(=O)O)cc1)NC(=O)CCC(=O)O (configuration not stated)
- inhibition [1]: 37%
- inhibition [2]: 5%
- inhibition [3]: 1%

Structure (SMILES): CCCCCNC(=O)C(Cc1ccc(O/C(=C/C(=O)O)C(=O)O)cc1)NC(=O)CCC(=O)O (configuration not stated)
- inhibition [1]: 50%
- inhibition [3]: 5%

Structure (SMILES): CCCCCNC(=O)C(Cc1ccc(OC(C(=O)OCC)C(=O)OCC)cc1)NC(=O)CCC(=O)O (configuration not stated)
- inhibition [1]: 1%
- inhibition [3]: 0%

Structure (SMILES): CCCCCNC(=O)C(Cc1ccc(OC(C(=O)O)C(=O)O)cc1)NC(=O)CCC(N)=O (configuration not stated)
- inhibition [1]: 51%

Structure (SMILES): O=C(O)CCC(=O)NC(Cc1ccc(OC(C(=O)O)C(=O)O)cc1)C(=O)NCCc1ccc(O)cc1 (configuration not stated)
- inhibition [1]: 43%

Structure (SMILES): CCCCCNC(=O)C(Cc1ccc(OC(C(=O)O)C(=O)O)cc1)NC(=O)CCC(=O)OCc1ccccc1 (configuration not stated)
- inhibition [1]: 39%
